Data: patent publication US20030087243A1, “Diagnosis, prognosis and treatment of cancer related to the Barx2 gene” (priority 1999, published 2003)

Assays:
Format in all cases: cell-based, human
Barx2 = experiment: Azacytidine demethylation, Barx2 re-expression in OAW42; settings: OAW42, 96 hours, 0.5 μM azacytidine
Experimental: OAW42 was exposed to 5-azacytidine for 96 hours at different concentrations. […] Feint expression is seen for barx2 in OAW42 control, but strong induction of barx2 expression is seen at 0.5 μM azacytidine relative to actin signal.
OAW42 was exposed to 5-azacytidine for 96 hours at different concentrations.

PEO1CDDP [1] = experiment: Growth (cell counts) of PEO1CDDP transfectant clones exposed to cisplatinum; settings: day 13
Experimental: We tested whether the introduction of Barx2 into PEO1CDDP altered its sensitivity to cisplatinum. 25000 cells were plated. Two days later, varying concentrations of cisplatinum were applied for 3 days, and then removed. Refeeding of the cells was performed every three days until day 13 with cell counts performed every three days.
CH1.1 is a control PEO1CDDP derivative clone that has been transfected with the pBabe Hygro empty vector (the same vector into which BarX2 was cloned) and behave as the parent line. CB3.6 is a BarX2 transfected growth suppressed clone. Both are exposed to increasing concentrations of cisplatinum.
The result of this experiment is seen particularly at the 1 μM cisplatinum concentration. Compared with no cisplatinum, the control cell line grows to 85% control at 1 μM cisplatinum at day 13. At the same timepoint and concentration of platinum, the BarX2 transfected platinum resistant cell line grows to only 69% of control. This increase in platinum sensitivity (or reduction in resistance) upon BarX2 transfection is consistent with the observed aberrant expression of the 5′ BarX2 transcript noted by RT-PCR in the PEO series of cell lines. Whether BarX2 induces sensitivity, reduces resistance, or both is not understood and the underlying mechanism is currently being explored.

PEO1 = experiment: 12 day growth inhibition assay with cisplatin, PEO1 with and without Barx2 transfection; settings: PEO1, across the cisplatin concentration range
Excerpt: (§1) Transfection of BARX2 into OVCAR3, OAW42, PEO1 and PEO1-CDDP suppresses cell growth. In OAW42, this is accompanied by suppression of matrigel invasion, cell migration and adhesion and partial G1/S-phase block. […] This is consistent with recent thinking for molecular mechanisms of cytotoxicity in clinical cancer, and clonogenic assays are shown in FIG. 35.

[2] = test system: PEO1 cisplatin sensitive and resistant cell lines; experiment: Annexin-V-FACS apoptosis after cisplatin
Experimental: Flow-cytometric detection of phosphatidylserine expression in cell lines and MHCs was performed according to the manufacturer's method using the Fluorescein labelled Annexin-V Apoptosis Detection Kit (R&D systems) (Vermes et al, 1995). The measure of early apoptosis derives from the assessment of the proportion of Annexin-V positives Propidium Iodide negative cells.
as §1

PEO1 CDDP cell line = experiment: Cisplatin resistance of PEO1 CDDP cell line relative to PEO1; settings: developed by exposing PEO1 to cisplatinum in vitro
Excerpt: (§2) In FIG. 4, the 5′ end (F1R1) and the 3′ end (F3R3) of the BarX2 transcript are amplified by RT-PCR using the primers given. PEO1, PEO4, PEO6 and PEOCDDP are four cell lines derived from a patient with ovarian cancer. […] Another cell line PEO4 was derived from the same patient when they relapsed again after treatment with high dose cisplatin chemotherapy in vivo. This cell line is approx four-fold resistant relative to PEO1.

PEO1CDDP [3] = experiment: 12 day growth inhibition assay with cisplatin, PEO1CDDP with and without Barx2 transfection; settings: across the cisplatin concentration range
[4] = test system: PEO1CDDP transfectant cell lines; experiment: Clonogenic assay of PEO1CDDP transfectants after cisplatinum exposure; settings: CB1.3, CB3.6 vs CH1.1, CH2.2; 3 day exposure, 1.0 μM cisplatinum; p<0.0001
Experimental: FIG. 35. The PEO1CCDP pBABE Hygromycin control transfectant cell lines CH1.1 and CH2.2, and the PEO1CDDP pBABE BARX2 transfectant cell lines CB1.3 and CB3.6, were assayed for survival at day 12 following 3 day exposure to 0 μM, 1.0 μM and 2.0 μM cisplatinum in a clonogenic assay.

PEO4 = experiment: Cisplatin resistance of PEO4 cell line relative to PEO1; settings: PEO4, derived after relapse following high dose cisplatin in vivo
Excerpt: as §2

SMILES: Nc1ncn([C@@H]2O[C@H](CO)[C@@H](O)[C@H]2O)c(=O)n1 [5-azacytidine]
- induction of Barx2 expression (Barx2): Clear induction

SMILES: N.N.[Cl][Pt][Cl] [cisplatin]
- growth compared with no cisplatinum (PEO1CDDP [1]; BarX2 transfected clone CB3.6, 1 μM cisplatinum for 3 days): 69%
- growth compared with no cisplatinum (PEO1CDDP [1]; control clone CH1.1 (pBabe Hygro empty vector), 1 μM cisplatinum for 3 days): 85%
- change of sensitivity to cisplatin as a result of Barx2 transfection (PEO1): not significantly altered
- apoptosis, sensitive versus resistant cell lines ([2]; 1.5 or 5 micromolar cisplatin, between 1 hr and 40 hr): no significant differences
- apoptosis in response to cisplatin in BARX2 transfected cells ([2]; BARX2 transfected PEO1 and PEO1-CDDP): no increase in apoptosis
- resistance to cisplatin relative to PEO1 (PEO1 CDDP cell line): 18 fold
- increase of platinum sensitivity by Barx2 transfection (PEO1CDDP [3]): six
- increase in platinum sensitivity following BARX2 transfection (survival at day 12) [4]: statistically significant
- resistance relative to PEO1 (PEO4): approx four
